{"source": "patent US20130244876A1", "about": "“Synergistic compositions comprising ethephon and saflufenacil or cyclanilide and saflufenacil” (priority 2012, published 2013)", "key": {"[1]": {"system": "soybean variety Maxi", "assay": "Greenhouse trial for desiccation in soybean", "assay_type": "in vivo", "conditions": "foliar spray 100 L/ha, three days after application", "experimental": "(§1) The trial was established under greenhouse conditions. The objective was to evaluate the dessication activity of saflufenacil solo and in mixture with cyclanilide and ethephon.\n(§2) The plants (soybean variety Maxi, cotton Variety Oxford) were sown (Dec. 3, 2012) in pots with 8.5 cm of diameter using standard soil from Limburgerhof, Palatinate, Germany, emerging after 3 days, maintained during the entire growth period at temperatures of about 20 to 24° C., relative humidity of about 65 to 70%, watering in the afternoon or in the morning. Each treatment was composed by 4 replications (one plant per pot).\n(§3) Foliar treatments were applied 51 days after sowing (Jan. 23, 2013) in a spray cabin with one Flat fan nozzle, using 100 L/ha as application volume. The spray solutions were prepared according to the given concentration of Tables 1 and 2 and contained in addition to the formulations used a surfactant (DASH HC, BASF S.A., Brazil; EC formulation based on methyl esters) at 0,5% (v/v).\n(§4) Saflufenacil (70% (w/w), WG formulation; Sharpen® BASF Corporation, USA)\n(§5) Ethephon (480 g/L, SL formulation)\n(§6) Cyclanilide, (300 g/kg, WP formulation)\n(§7) Assessments were made at three days after applicaton in soybean and seven days after application in cotton by evaluating percentage of symptoms of damage to the crop, mainly chlorosis and necrosis."}, "[2]": {"system": "cotton Variety Oxford", "assay": "Greenhouse trial for desiccation in cotton", "assay_type": "in vivo", "conditions": "foliar spray 100 L/ha, seven days after application", "experimental": "as §1, §2, §3, §4, §5, §6, §7"}, "[3]": {"conditions": "1.5 g of a.i. per 100 L, percentage of symptoms of damage"}, "[4]": {"conditions": "1.4 g of a.i. per 100 L, percentage of symptoms of damage (chlorosis and necrosis)"}, "[5]": {"conditions": "20 g of a.i. per 100 L, percentage of symptoms of damage"}}, "data": [{"smiles": "O=C(O)C1(C(=O)Nc2ccc(Cl)cc2Cl)CC1", "note": "[Cyclanilide]", "values": [{"measurement": "Observed activity (%)", "setting": "[1]; [3]", "value": 0, "unit": "%"}, {"measurement": "Observed activity (%)", "setting": "[2]; [3]", "value": 0, "unit": "%"}]}, {"smiles": "CC(C)N(C)S(=O)(=O)NC(=O)c1cc(-n2c(=O)cc(C(F)(F)F)n(C)c2=O)c(F)cc1Cl", "note": "[Saflufenacil]", "values": [{"measurement": "Observed activity (%)", "setting": "[1]; [4]", "value": 15, "unit": "%"}, {"measurement": "Observed activity (%)", "setting": "[2]; [4]", "value": 18.8, "unit": "%"}]}, {"smiles": "O=P(O)(O)CCCl", "note": "[Ethephon]", "values": [{"measurement": "Observed activity (%)", "setting": "[1]; [5]", "value": 0, "unit": "%"}, {"measurement": "Observed activity (%)", "setting": "[2]; [5]", "value": 0, "unit": "%"}]}]}
